Values quoted from earlier work as cited in PMC12030314, “Biomarker-Driven Pharmacokinetics and Efficacy of Polymyxin B in Critically Ill Patients with XDR-GN Pneumonia” (Pharmaceuticals, 2025).
Where two headings read alike, the source gives them in different places.

How the values were obtained:
[1] = ref Lamer et al. 103, cited from earlier work
[2] = significant individual variation; cited from earlier work
Description: Colistin (colistin methanesulfonate, CMS) and polymyxin B (PMB) are polymyxins that were approved for clinical use in the 1950s worldwide. Colistin is clinically administered as a prodrug, which requires conversion to the active form in vivo. […] The elimination of colistin is primarily dependent on renal function. Patients with renal impairment are prone to drug accumulation and increased nephrotoxicity risk. PMB is ... || Finally, we cannot rule out the possibility of the potential impacts of other combined drugs on PMB PK and the heterogeneity among the patients in our study. To date, little evidence supports the conclusion that the combined use of other drugs affects PMB PK. Studies have shown that urinary recovery from PMB is low (<5%). […] Further studies examining the nonrenal routes of PMB elimination are warranted, ...

Row | Compound | ELF/plasma value ([1]; patients with lung inflammation (ELF albumin ≥ 3.4 mg/mL)) | ELF/plasma value ([1]; patients without lung inflammation (ELF albumin <3.4 mg/mL)) | conversion efficiency of the prodrug to the active form in vivo [2]
1 | CN[C@H](CC(C)C)C(=O)N[C@H]1C(=O)N[C@@H](CC(N)=O)C(=O)N[C@H]2C(=O)N[C@H]3C(=O)N[C@H](C(=O)N[C@H](C(=O)O)c4cc(O)cc(O)c4-c4cc3ccc4O)[C@H](O)c3ccc(c(Cl)c3)Oc3cc2cc(c3O[C@@H]2O[C@H](CO)[C@@H](O)[C@H](O)[C@H]2O[C@H]2C[C@](C)(N)[C@H](O)[C@H](C)O2)Oc2ccc(cc2Cl)[C@H]1O [vancomycin] | 0.246 [0.192–0.426] | 0.14 [0.023–0.285] | –
2 | colistin methanesulfonate | – | – | 20–25%
